Assay results reported in patent US12043599B2, “Herbicidal compounds” (SYNGENTA PARTICIPATIONS AG, priority 2018, dated 2024).

Assays:
Format in all cases: in vivo
Conditions in all cases: 250 g/h, evaluated after 13 days
Avena fatua (AVEFA) [1] = test: Pre-emergence herbicidal glasshouse test, percentage damage
Method: (§1) Seeds of a variety of test species are sown in standard soil in pots (Lolium perenne (LOLPE), Setaria faberi (SETFA), Alopecurus myosuroides (ALOMY), Echinochloa crus-galli (ECHCG), Avena fatua (AVEFA)). After cultivation for one day (pre-emergence) or after 8 days cultivation (post-emergence) under controlled conditions in a glasshouse (at 24/16° C., day/night; 14 hours light; 65% humidity), the plants are sprayed with an aqueous spray solution derived from the formulation of the technical active ingredient in acetone/water (50:50) solution containing 0.5% Tween 20 (polyoxyethelyene sorbitan monolaurate, CAS RN 9005-64-5). Compounds are applied at […]. The test plants are then grown in a glasshouse under controlled conditions in a glasshouse (at 24/16° C., day/night; 14 hours light; 65% humidity) and watered twice daily. After 13 days for pre and post-emergence, the test is evaluated for the percentage damage caused to the plant. The biological activities are shown in the following table on a five point scale (5=80-100%; 4=60-79%; 3=40-59%; 2=20-39%; 1=0-19%).

[2] = tested on: Echinochloa crus-galli (ECHCG); test: as above
Method: as §1

Lolium perenne (LOLPE) [3] = test: as above
Method: as §1

Setaria faberi (SETFA) [4] = test: as above
Method: as §1

Setaria faberi (SETFA) [5] = test: Post-emergence herbicidal glasshouse test, percentage damage
Method: as §1
Using procedures outlines above, wheat and barley crop plants and a weed species (SETFA) are treated post-emergence with compound A11 of the present invention or comparator compound C1 (Compound A-38 from WO2014/096289) at the application rates indicated. The compounds were also applied to wheat in conjunction with the safener compound cloquintocet-mexyl (CQC) at 50 g/ha.

Avena fatua (AVEFA) [6] = test: as above
Method: as §1

[7] = tested on: Echinochloa crus-galli (ECHCG); test: as above
Method: as §1

Lolium perenne (LOLPE) [8] = test: as above
Method: as §1

SMILES	AVEFA PRE percentage damage (five point scale) (Avena fatua (AVEFA) [1])	ECHCG PRE percentage damage (five point scale) [2]	LOLPE PRE percentage damage (five point scale) (Lolium perenne (LOLPE) [3])	SETFA PRE percentage damage (five point scale) (Setaria faberi (SETFA) [4])	SETFA POST percentage damage (five point scale) (Setaria faberi (SETFA) [5])	AVEFA POST percentage damage (five point scale) (Avena fatua (AVEFA) [6])	ECHCG POST percentage damage (five point scale) [7]	LOLPE POST percentage damage (five point scale) (Lolium perenne (LOLPE) [8])
CC#Cc1cc(C)c(C2C(=O)CC3(CCN(C(=O)c4ccnn4C)CC3)CC2=O)c(C)c1 [Compound A136]	5 (5=80-100%)	5 (5=80-100%)	5 (5=80-100%)	5 (5=80-100%)	5 (5=80-100%)	5 (5=80-100%)	5 (5=80-100%)	5 (5=80-100%)
CC#Cc1cc(C)c(C2C(=O)CC3(CCN(C(=O)c4nccnc4C)CC3)CC2=O)c(C)c1 [Compound A138]	5 (5=80-100%)	5 (5=80-100%)	5 (5=80-100%)	5 (5=80-100%)	5 (5=80-100%)	5 (5=80-100%)	5 (5=80-100%)	5 (5=80-100%)
CC#Cc1cc(C)c(C2C(=O)CC3(CCN(C(=O)C4CCCO4)CC3)CC2=O)c(C)c1 (stereo not drawn) [Compound A139]	5 (5=80-100%)	5 (5=80-100%)	5 (5=80-100%)	5 (5=80-100%)	5 (5=80-100%)	5 (5=80-100%)	5 (5=80-100%)	5 (5=80-100%)
CC#Cc1cc(C)c(C2C(=O)CC3(CCN(C(=O)NC(=O)C4CC4)CC3)CC2=O)c(C)c1 [Compound A141]	4 (4=60-79%)	5 (5=80-100%)	5 (5=80-100%)	5 (5=80-100%)	5 (5=80-100%)	5 (5=80-100%)	5 (5=80-100%)	5 (5=80-100%)
CC#Cc1cc(C)c(C2C(=O)CC3(CCN(C(=O)NC(=O)C(C)C)CC3)CC2=O)c(C)c1 [Compound A142]	4 (4=60-79%)	5 (5=80-100%)	5 (5=80-100%)	5 (5=80-100%)	5 (5=80-100%)	5 (5=80-100%)	5 (5=80-100%)	5 (5=80-100%)
CC#Cc1cc(C)c(C2C(=O)CC3(CCN(C4=NOC(C)(C)C4)CC3)CC2=O)c(C)c1 [Compound A143]	4 (4=60-79%)	5 (5=80-100%)	5 (5=80-100%)	5 (5=80-100%)	5 (5=80-100%)	5 (5=80-100%)	5 (5=80-100%)	5 (5=80-100%)
